Reference: patent publication US20240308994A1, “ISOXAZOLE DERIVATIVE OR PHARMACEUTICALLY ACCEPTABLE SALT THEREOF AND USE THEREOF” (INDUSTRY-UNIVERSITY COOPERATION FOUNDATION HANYANG …, priority 2021, published 2024)
Where two headings read alike, the source gives them in different places.

Target: T1, FMS (h) (Homo sapiens, UniProt P07333)
T1 construct: purchased Reaction Biology Corp. (Kinase HotSpot service)
Test: Kinase HotSpot radiometric assay, activity on CSF-1R (FMS)
Type: biochemical

[1] = Table 3, read-out: IC50 (M) on FMS

T1 sequence (P07333 20-972): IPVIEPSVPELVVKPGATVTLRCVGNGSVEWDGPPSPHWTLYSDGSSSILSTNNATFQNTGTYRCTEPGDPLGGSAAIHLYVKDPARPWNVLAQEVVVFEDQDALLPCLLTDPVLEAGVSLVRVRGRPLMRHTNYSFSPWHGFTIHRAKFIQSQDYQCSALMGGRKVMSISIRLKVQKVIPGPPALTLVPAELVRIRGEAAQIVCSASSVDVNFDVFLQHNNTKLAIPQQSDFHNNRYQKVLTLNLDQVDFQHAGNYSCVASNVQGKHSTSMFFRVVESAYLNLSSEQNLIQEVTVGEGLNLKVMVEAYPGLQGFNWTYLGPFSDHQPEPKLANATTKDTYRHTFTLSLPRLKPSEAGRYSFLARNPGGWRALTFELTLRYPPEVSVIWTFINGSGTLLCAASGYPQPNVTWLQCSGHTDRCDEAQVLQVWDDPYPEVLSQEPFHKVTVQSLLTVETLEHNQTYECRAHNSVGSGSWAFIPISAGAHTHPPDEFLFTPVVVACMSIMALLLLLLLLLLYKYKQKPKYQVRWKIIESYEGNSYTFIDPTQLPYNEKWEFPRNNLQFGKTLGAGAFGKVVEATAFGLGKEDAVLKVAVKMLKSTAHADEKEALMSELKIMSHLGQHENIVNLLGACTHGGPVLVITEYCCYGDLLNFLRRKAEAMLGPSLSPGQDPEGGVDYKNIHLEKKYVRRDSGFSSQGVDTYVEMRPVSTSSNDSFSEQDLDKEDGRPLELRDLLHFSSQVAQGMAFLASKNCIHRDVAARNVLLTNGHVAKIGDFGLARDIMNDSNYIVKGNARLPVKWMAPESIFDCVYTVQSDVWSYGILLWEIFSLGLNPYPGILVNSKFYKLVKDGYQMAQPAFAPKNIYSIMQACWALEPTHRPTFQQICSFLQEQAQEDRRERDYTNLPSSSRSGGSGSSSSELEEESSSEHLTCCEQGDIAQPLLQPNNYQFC

| SMILES | IC50 [1] [M] | IC50 (Table 1, read-out: IC50) [M] |
| --- | --- | --- |
| Cc1cc(C(=O)Nc2cc(NC(=O)c3ccc(-c4ccccc4)cc3)ccc2C)no1 [Compound 5f, N-(5-([1,1′-biphenyl]-4-carboxamido)-2-methylphenyl)-5-methylisoxazole-3-carboxamide] | > 1e-06 | – |
| Cc1cc(C(=O)Nc2cc(NC(=O)c3cc(N4CCN(C)CC4)cc(-n4ccnc4C)c3)ccc2C)no1 [Compound 5g, 5-methyl-N-(2-methyl-5-(3-(2-methyl-1H-imidazol-1-yl)-5-(4-methylpiperazin-1-yl)benzamido)phenyl)isoxazole-3-carboxamide] | > 1e-06 | – |
| Cc1cc(C(=O)Nc2cc(NC(=O)c3cc(NC4CCN(C)CC4)cc(-n4ccnc4C)c3)ccc2C)no1 [Compound 5h, 5-methyl-N-(2-methyl-5-(3-(2-methyl-1H-imidazol-1-yl)-5-((1-methylpiperidin-4-yl)amino)benzamido)phenyl)isoxazole-3-carboxamide] | > 1e-06 | – |
| Cc1cc(C(=O)Nc2cc(NC(=O)c3cc(N[C@@H]4CCCN(C)C4)cc(C(F)(F)F)c3)ccc2C)no1 [Compound 5l, (R)-5-Methyl-N-(2-methyl-5-(3-((1-methylpiperidin-3-yl)amino)-5-(trifluoromethyl)benzamido)phenyl)isoxazole-3-carboxamide] | > 1e-06 | – |
| Cc1cc(C(=O)Nc2cc(NC(=O)c3cc(N4CCC([N+](C)(C)C)C4)cc(C(F)(F)F)c3)ccc2C)no1 (stereo not drawn) [Compound 5m, N,N,N-trimethyl-1-(3-((4-methyl-3-(5-methylisoxazole-3-carboxamido)phenyl)carbamoyl)-5-(trifluoromethyl)phenyl)pyrrolidin-3-aminium] | > 1e-06 | – |
| Cc1cc(C(=O)Nc2cc(NC(=O)c3ccc4ccccc4n3)ccc2C)no1 [Compound 5q, 5-methyl-N-(2-methyl-5-(quinoline-2-carboxamido)phenyl)isoxazole-3-carboxamide] | > 1e-06 | – |
| Cc1cc(C(=O)Nc2cc(NC(=O)c3ccc4nn[nH]c4c3)ccc2C)no1 [Compound 5r, N-(5-(1H-benzo[d][1,2,3]triazole-6-carboxamido)-2-methylphenyl)-5-methylisoxazole-3-carboxamide] | > 1e-06 | – |
| Cc1cc(C(=O)Nc2cc(NC(=O)c3cnn(-c4ccccc4)c3C(F)(F)F)ccc2C)no1 [Compound 5s, 5-methyl-N-(2-methyl-5-(1-phenyl-5-(trifluoromethyl)-1H-pyrazole-4-carboxamido)phenyl)isoxazole-3-carboxamide] | > 1e-06 | – |
| Cc1cc(C(=O)Nc2cc(NC(=O)c3ccc4cn[nH]c4c3)ccc2C)no1 [Compound 5t, N-(5-(1H-indazole-6-carboxamido)-2-methylphenyl)-5-methylisoxazole-3-carboxamide] | > 1e-06 | – |
| Cc1cc(C(=O)Nc2ccc(NC3CCOCC3)nc2C)no1 [Compound 17b, 5-methyl-N-(2-methyl-6-((tetrahydro-2H-pyran-4-yl)amino)pyridin-3-yl)isoxazole-3-carboxamide] | < 1e-07 | – |
| Cc1cc(C(=O)Nc2ccc(C3CCNC3)cc2C2=CCCCC2)no1 (stereo not drawn) [Compound 60a, 5-methyl-N-(5-(pyrrolidin-3-yl)-2′,3′,4′,5′-tetrahydro-[1,1′-biphenyl]-2-yl)isoxazole-3-carboxamide] | 1e-07 to 1e-06 | 1e-07 to 1e-06 |
| Cc1cc(C(=O)Nc2ccc(C3CCNCC3)cc2C2=CCCCC2)no1 [Compound 60b, 5-methyl-N-(5-(piperidin-4-yl)-2′,3′,4′,5′-tetrahydro-[1,1′-biphenyl]-2-yl)isoxazole-3-carboxamide] | < 1e-07 | < 1e-07 |
| Cc1cc(C(=O)Nc2ccc(C3CCCNCC3)cc2C2=CCCCC2)no1 (stereo not drawn) [Compound 60c, N-(5-(azepan-4-yl)-2′,3′,4′,5′-tetrahydro-[1,1′-biphenyl]-2-yl)-5-methylisoxazole-3-carboxamide] | < 1e-07 | < 1e-07 |
| Cc1cc(C(=O)Nc2ccc(C3CCNCC3)cc2C2=CCCC2)no1 [Compound 61b, N-(2-(Cyclopent-1-en-1-yl)-4-(piperidin-4-yl)phenyl)-5-methylisoxazole-3-carboxamide] | > 1e-06 | > 1e-06 |
| Cc1cc(C(=O)Nc2ccc(C3CCNCC3)cc2-c2cncnc2)no1 [Compound 62b, 5-methyl-N-(4-(piperidin-4-yl)-2-(pyrimidin-5-yl)phenyl)isoxazole-3-carboxamide] | > 1e-06 | > 1e-06 |
| Cc1cc(C(=O)Nc2ccc(C3CCNCC3)cc2C2=CCC(C)CC2)no1 (stereo not drawn) [Compound 63b, 5-Methyl-N-(4′-methyl-5-(piperidin-4-yl)-2′,3′,4′,5′-tetrahydro-[1,1′-biphenyl]-2-yl)isoxazole-3-carboxamide] | < 1e-07 | < 1e-07 |
| Cc1cc(C(=O)Nc2ccc(C3CCNCC3)cc2C2=CCC(C)(C)CC2)no1 [Compound 64b, N-(4′,4′-dimethyl-5-(piperidin-4-yl)-2′,3′,4′,5′-tetrahydro-[1,1′-biphenyl]-2-yl)-5-methylisoxazole-3-carboxamide] | < 1e-07 | < 1e-07 |
| Cc1cc(C(=O)Nc2ccc(C3CCCNCC3)cc2C2=CCC(C)(C)CC2)no1 (stereo not drawn) [Compound 64c, N-(5-(azepan-4-yl)-4′,4′-dimethyl-2′,3′,4′,5′-tetrahydro-[1,1′-biphenyl]-2-yl)-5-methylisoxazole-3-carboxamide] | < 1e-07 | < 1e-07 |

| SMILES | IC50 [1] [M] | IC50 (Table 1, read-out: IC50) [M] |
| --- | --- | --- |
| Cc1cc(C(=O)Nc2ccc(C3CCNCC3)cc2C2CCCCC2)no1 [Compound 65b, N-(2-cyclohexyl-4-(piperidin-4-yl)phenyl)-5-methylisoxazole-3-carboxamide] | > 1e-06 | > 1e-06 |
| Cc1cc(C(=O)Nc2ccc(C3CCNCC3)cc2C2CCCC2)no1 [Compound 66b, N-(2-Cyclopentyl-4-(piperidin-4-yl)phenyl)-5-methylisoxazole-3-carboxamide] | > 1e-06 | > 1e-06 |
| Cc1cc(C(=O)Nc2ccc(C3CCN(C)CC3)cc2C2=CCCCC2)no1 [Compound 67b, 5-methyl-N-(5-(1-methylpiperidin-4-yl)-2′,3′,4′,5′-tetrahydro-[1,1′-biphenyl]-2-yl)isoxazole-3-carboxamide] | < 1e-07 | < 1e-07 |
| Cc1cc(C(=O)Nc2ccc(C3CCCN(C)CC3)cc2C2=CCCCC2)no1 (stereo not drawn) [Compound 67c, 5-methyl-N-(5-(1-methylazepan-4-yl)-2′,3′,4′,5′-tetrahydro-[1,1′-biphenyl]-2-yl)isoxazole-3-carboxamide] | 1e-07 to 1e-06 | 1e-07 to 1e-06 |
| Cc1cc(C(=O)Nc2ccc(C3CCCN(C)CC3)cc2C2=CCC(C)(C)CC2)no1 (stereo not drawn) [Compound 68c] | < 1e-07 | < 1e-07 |
| Cc1cc(C(=O)Nc2ccc(C3CCN(C)CC3)cc2C2CCCCC2)no1 [Compound 69b, N-(2-cyclohexyl-4-(1-methylpiperidin-4-yl)phenyl)-5-methylisoxazole-3-carboxamide] | > 1e-06 | > 1e-06 |
| CCN1CCC(c2ccc(NC(=O)c3cc(C)on3)c(C3=CCCCC3)c2)CC1 [Compound 70b, N-(5-(1-ethylpiperidin-4-yl)-2′,3′,4′,5′-tetrahydro-[1,1′-biphenyl]-2-yl)-5-methylisoxazole-3-carboxamide] | < 1e-07 | – |
| CCN1CCC(c2ccc(NC(=O)c3cc(C)on3)c(C3=CCCC3)c2)CC1 [Compound 71b, N-(2-(Cyclopent-1-en-1-yl)-4-(1-ethylpiperidin-4-yl)phenyl)-5-methylisoxazole-3-carboxamide] | > 1e-06 | > 1e-06 |
| CCN1CCC(c2ccc(NC(=O)c3cc(C)on3)c(C3=CCC(C)CC3)c2)CC1 (stereo not drawn) [Compound 72b, N-(5-(1-Ethylpiperidin-4-yl)-4′-methyl-2′,3′,4′,5′-tetrahydro-[1,1′-biphenyl]-2-yl)-5-methylisoxazole-3-carboxamide] | < 1e-07 | < 1e-07 |
| CCN1CCC(c2ccc(NC(=O)c3cc(C)on3)c(C3=CCC(C)(C)CC3)c2)CC1 [Compound 73b, N-(5-(1-ethylpiperidin-4-yl)-4′,4′-dimethyl-2′,3′,4′,5′-tetrahydro-[1,1′-biphenyl]-2-yl)-5-methylisoxazole-3-carboxamide] | < 1e-07 | < 1e-07 |
| CCN1CCC(c2ccc(NC(=O)c3cc(C)on3)c(C3CCCCC3)c2)CC1 [Compound 74b, N-(2-cyclohexyl-4-(1-ethylpiperidin-4-yl)phenyl)-5-methylisoxazole-3-carboxamide] | > 1e-06 | > 1e-06 |
| CCN1CCC(c2ccc(NC(=O)c3cc(C)on3)c(C3CCCC3)c2)CC1 [Compound 75b, N-(2-Cyclopentyl-4-(1-ethylpiperidin-4-yl)phenyl)-5-methylisoxazole-3-carboxamide] | > 1e-06 | > 1e-06 |
| CC(C)=CCN1CCC(c2ccc(NC(=O)c3cc(C)on3)c(C3=CCCCC3)c2)CC1 [Compound 76b, 5-methyl-N-(5-(1-(3-methylbut-2-en-1-yl)piperidin-4-yl)-2′,3′,4′,5′-tetrahydro-[1,1′-biphenyl]-2-yl)isoxazole-3-carboxamide] | < 1e-07 | 1e-07 to 1e-06 |
| Cc1cc(C(=O)Nc2ccc(C3CCN(CC4CC4)CC3)cc2C2=CCC(C)CC2)no1 (stereo not drawn) [Compound 77b, N-(5-(1-(cyclopropylmethyl)piperidin-4-yl)-4′-methyl-2,3,4,5′-tetrahydro-[1,1′-biphenyl]-2-yl)-5-methylisoxazole-3-carboxamide] | < 1e-07 | < 1e-07 |
| Cc1cc(C(=O)Nc2ccc(C3CCN(CC4CC4)CC3)cc2C2=CCC(C)(C)CC2)no1 [Compound 78b, N-(5-(1-(cyclopropylmethyl)piperidin-4-yl)-4′,4′-dimethyl-2′,3′,4′,5′-tetrahydro-[1,1′-biphenyl]-2-yl)-5-methylisoxazole-3-carboxamide] | < 1e-07 | < 1e-07 |
| Cc1cc(C(=O)Nc2ccc(C3CC[N+](C)(C)CC3)cc2C2=CCCCC2)no1 [Compound 79b, 1,1-dimethyl-4-(6-(5-methylisoxazole-3-carboxamido)-2′,3′,4′,5′-tetrahydro-[1,1′-biphenyl]-3-yl)piperidin-1-ium] | < 1e-07 | – |
| Cc1cc(C(=O)Nc2ccc(C3CCC[N+](C)(C)CC3)cc2C2=CCCCC2)no1 (stereo not drawn) [Compound 79c, 1,1-dimethyl-4-(6-(5-methylisoxazole-3-carboxamido)-2′,3′,4′,5′-tetrahydro-[1,1′-biphenyl]-3-yl)azepan-1-ium] | < 1e-07 | – |
